Data reported in patent publication US12668585B2, “Substituted pyrimidinyl-pyrazoles as CDK2 inhibitors” (BLUEPRINT MEDICINES CORPORATION, priority 2021, dated 2026).

What was measured:
[1] = target: T1, CDK2/Cyclin E (Homo sapiens, UniProt P24941); test: Biochemical CDK inhibition assay (Caliper mobility shift), CDK2/Cyclin E; settings: read-out: CDK2/cyclin E1 IC50
T1 construct: purchased Eurofins 14-475
Procedure: (§1) Inhibitory effects of the compounds of the disclosure were measured in biochemical assays that measure the enzymatic phosphorylation activity of CDK enzyme in complex of Cyclin proteins phosphorylates 7.5 micromolar fluorescently labelled peptide substrate, 5-FAM-QSPKKG-CONH2, (FL-Peptide 18, Perkin Elmer, 760362) in the presence of adenosine-5′-triphosphate (ATP) and varying concentrations of the test compound in 100 mM 2-[4-(2-hydroxyethyl)piperazin-1-yl] ethanesulfonic acid (HEPES), pH 7.5, 10 mM MgCl2, 0.015% Brij-35, 1 mM dithiothreitol (DTT), 1.0% dimehylsulfoxide (DMSO). […] Reactions proceeded until between 10% to 20% total peptides were phosphorylated at room temperature (25° C.) and were terminated with 35 mM 2,2′,2″,2′″-(ethane-1,2-diyldinitrilo)tetraacetic acid (EDTA). Product was detected using the Caliper mobility shift detection method where the phosphorylated peptide (product) and substrate were electrophoretically separated and measured. Percent activity was plotted against log concentration of compound and points to generate an apparent IC50. The following CDK enzymes in complex with different cyclin proteins were used in these assays: • CDK1/Cyclin B1, GST-tag (BPS, 40454), 1.5 nM used in the assay • CDK2/Cyclin E (Eurofins, 14-475), 1.25 nM used in the assays
(§2) For inhibitory activity against CDK2/Cyclin E mutant, the following designations are used: ≤10 nM=A; >10-20 nM=B; >20-30 nM=C; >30-100 nM=D and >100=E. For inhibition CDK1/Cyclin B1, GST-tag: ≥500 nM=A; <100-500 nM=B; <100 nM=C.

[2] = target: T2, CDK1/Cyclin B1, GST-tag (Homo sapiens, UniProt P06493); test: Biochemical CDK inhibition assay (Caliper mobility shift), CDK1/Cyclin B1
T2 construct: GST; purchased BPS 40454
T2 sequence (P06493 whole entry): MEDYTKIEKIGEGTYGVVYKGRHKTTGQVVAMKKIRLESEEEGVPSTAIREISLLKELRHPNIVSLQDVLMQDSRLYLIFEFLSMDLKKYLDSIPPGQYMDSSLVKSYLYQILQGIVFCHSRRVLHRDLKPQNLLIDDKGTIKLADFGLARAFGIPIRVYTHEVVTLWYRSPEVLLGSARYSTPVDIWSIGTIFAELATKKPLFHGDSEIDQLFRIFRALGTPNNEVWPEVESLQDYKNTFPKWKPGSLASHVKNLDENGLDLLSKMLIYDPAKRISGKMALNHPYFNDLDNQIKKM
T2 sequence (P14635 whole entry partner): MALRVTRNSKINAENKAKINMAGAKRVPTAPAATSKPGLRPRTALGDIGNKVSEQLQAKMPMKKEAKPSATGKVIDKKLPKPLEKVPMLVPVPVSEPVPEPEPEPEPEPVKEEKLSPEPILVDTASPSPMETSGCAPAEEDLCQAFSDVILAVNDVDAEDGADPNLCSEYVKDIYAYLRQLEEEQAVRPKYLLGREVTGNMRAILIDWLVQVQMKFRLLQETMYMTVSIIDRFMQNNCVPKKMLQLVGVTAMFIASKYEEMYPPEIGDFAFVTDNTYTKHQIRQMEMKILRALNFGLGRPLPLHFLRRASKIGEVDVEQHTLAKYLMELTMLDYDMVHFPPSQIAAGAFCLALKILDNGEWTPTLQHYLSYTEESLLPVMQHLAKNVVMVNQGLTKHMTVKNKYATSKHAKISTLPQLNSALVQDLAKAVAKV
Procedure: as §1, §2

## NS(=O)(=O)c1ccc(Nc2ncc(C(F)(F)F)c(-c3cnn(CC(O)C4CC4)c3)n2)c(F)c1 (stereo not drawn) [Example 32, 4-((4-(1-(2-cyclopropyl-2-hydroxyethyl)-1H-pyrazol-4-yl)-5-(trifluoromethyl)pyrimidin-2-yl)amino)-3-fluorobenzenesulfonamide]
[1]
  IC50: 10 to 20 nM
[2]
  IC50: ≥ 500 nM

## N#Cc1cnc(Nc2ccc(S(N)(=O)=O)cc2)nc1-c1cnn(CCO)c1 [Example 34, 4-((5-cyano-4-(1-(2-hydroxyethyl)-1H-pyrazol-4-yl)pyrimidin-2-yl)amino)benzenesulfonamide]
[1]
  IC50: 10 to 20 nM
[2]
  IC50: 100 to 500 nM

## C[C@H](O)Cn1cc(-c2nc(Nc3ccc(S(N)(=O)=O)cc3F)ncc2C(F)(F)F)cn1 [Example 35, (S)-3-fluoro-4-((4-(1-(2-hydroxypropyl)-1H-pyrazol-4-yl)-5-(trifluoromethyl)pyrimidin-2-yl)amino)benzenesulfonamide]
[1]
  IC50: 10 to 20 nM
[2]
  IC50: ≥ 500 nM

## Cc1cnc(Nc2ccc(S(N)(=O)=O)cc2F)nc1-c1cnn(CC(C)(C)O)c1 [Example 36, 3-fluoro-4-((4-(1-(2-hydroxy-2-methylpropyl)-1H-pyrazol-4-yl)-5-methylpyrimidin-2-yl)amino)benzenesulfonamide]
[1]
  IC50: 10 to 20 nM
[2]
  IC50: ≥ 500 nM

## Cc1cc(Nc2ncc(C(F)(F)F)c(-c3cnn(CC(C)(C)O)c3)n2)cc(C)c1S(N)(=O)=O [Example 37, 4-((4-(1-(2-hydroxy-2-methylpropyl)-1H-pyrazol-4-yl)-5-(trifluoromethyl)pyrimidin-2-yl)amino)-2,6-dimethylbenzenesulfonamide]
[1]
  IC50: 10 to 20 nM
[2]
  IC50: 100 to 500 nM

## CC(C)(O)Cn1cc(-c2nc(Nc3ccc(S(N)(=O)=O)c(Cl)c3F)ncc2C(F)(F)F)cn1 [Example 38, 2-chloro-3-fluoro-4-((4-(1-(2-hydroxy-2-methylpropyl)-1H-pyrazol-4-yl)-5-(trifluoromethyl)pyrimidin-2-yl)amino)benzenesulfonamide]
[1]
  IC50: 10 to 20 nM
[2]
  IC50: ≥ 500 nM

## N#Cc1cnc(Nc2ccc(S(N)(=O)=O)cc2)nc1-c1cnn(C2COC2)c1 [Example 39, 4-((5-cyano-4-(1-(oxetan-3-yl)-1H-pyrazol-4-yl)pyrimidin-2-yl)amino)benzenesulfonamide]
[1]
  IC50: 10 to 20 nM
[2]
  IC50: ≥ 500 nM

## COc1c(S(N)(=O)=O)ccc(Nc2ncc(C(F)(F)F)c(-c3cnn(CC(C)(C)O)c3)n2)c1F [Example 40, 3-fluoro-4-((4-(1-(2-hydroxy-2-methylpropyl)-1H-pyrazol-4-yl)-5-(trifluoromethyl)pyrimidin-2-yl)amino)-2-methoxybenzenesulfonamide]
[1]
  IC50: 10 to 20 nM
[2]
  IC50: ≥ 500 nM

## NS(=O)(=O)c1ccc(Nc2ncc(C(F)(F)F)c(-c3cnn(CC4(O)COC4)c3)n2)c(F)c1 [Example 41, 3-fluoro-4-((4-(1-((3-hydroxyoxetan-3-yl)methyl)-1H-pyrazol-4-yl)-5-(trifluoromethyl)pyrimidin-2-yl)amino)benzenesulfonamide]
[1]
  IC50: 10 to 20 nM
[2]
  IC50: ≥ 500 nM

## CCc1cnc(Nc2ccc(S(N)(=O)=O)cc2F)nc1-c1cnn(CC(C)(C)O)c1 [Example 42, 4-((5-ethyl-4-(1-(2-hydroxy-2-methylpropyl)-1H-pyrazol-4-yl)pyrimidin-2-yl)amino)-3-fluorobenzenesulfonamide]
[1]
  IC50: 20 to 30 nM
[2]
  IC50: ≥ 500 nM

## NS(=O)(=O)c1ccc(Nc2ncc(C(F)(F)F)c(-c3cnn(C4COC4)c3)n2)c(F)c1 [Example 43, 3-fluoro-4-((4-(1-(oxetan-3-yl)-1H-pyrazol-4-yl)-5-(trifluoromethyl)pyrimidin-2-yl)amino)benzenesulfonamide]
[1]
  IC50: 20 to 30 nM
[2]
  IC50: ≥ 500 nM

## CC(C)(O)Cn1cc(-c2nc(Nc3ccc(S(N)(=O)=O)cc3Cl)ncc2F)cn1 [Example 44, 3-chloro-4-((5-fluoro-4-(1-(2-hydroxy-2-methylpropyl)-1H-pyrazol-4-yl)pyrimidin-2-yl)amino)benzenesulfonamide]
[1]
  IC50: 20 to 30 nM
[2]
  IC50: ≥ 500 nM

## Cc1cc(Nc2ncc(C(F)(F)F)c(-c3cnn(CC(C)(C)O)c3)n2)c(F)cc1S(N)(=O)=O [Example 45, 5-fluoro-4-((4-(1-(2-hydroxy-2-methylpropyl)-1H-pyrazol-4-yl)-5-(trifluoromethyl)pyrimidin-2-yl)amino)-2-methylbenzenesulfonamide]
[1]
  IC50: 20 to 30 nM
[2]
  IC50: ≥ 500 nM

## COc1cc(S(N)(=O)=O)ccc1Nc1ncc(F)c(-c2cnn(CC(C)(C)O)c2)n1 [Example 46, 4-((5-fluoro-4-(1-(2-hydroxy-2-methylpropyl)-1H-pyrazol-4-yl)pyrimidin-2-yl)amino)-3-methoxybenzenesulfonamide]
[1]
  IC50: 30 to 100 nM
[2]
  IC50: ≥ 500 nM

## NS(=O)(=O)c1ccc(Nc2ncc(C(F)(F)F)c(-c3cnn(C4CCOCC4)c3)n2)c(F)c1 [Example 47, 3-fluoro-4-((4-(1-(tetrahydro-2H-pyran-4-yl)-1H-pyrazol-4-yl)-5-(trifluoromethyl)pyrimidin-2-yl)amino)benzenesulfonamide]
[1]
  IC50: ≤ 10 nM
[2]
  IC50: ≥ 500 nM
